Measurements taken from US20240116877A1, “KIT KINASE INHIBITORS AND METHODS OF USE THEREOF” (Deciphera Pharmaceuticals, LLC, priority 2021, published 2024).
Like-named read-outs stand apart in the source and are kept apart here.

Legend:
[1] = test system: Ba/F3 KIT mutant cells; experiment: Ba/F3 mutant KIT Cell Proliferation Assays (resazurin); format: cell-based; settings: Mus musculus, BaF3
How it was run: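 IC50 values come from resazurin fluorescence (ex 540, em 600) after 5 h dye exposure, added as a 440 μM solution. Cells were IL-3-independent Ba/F3 expressing mutant KIT from a lentiviral vector, puromycin-selected.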

[2] = biological target: c-KIT kinase (uKIT) (Homo sapiens (Human), UniProt P10721); experiment: Biochemical Assay for uKIT (coupled pyruvate kinase/lactate dehydrogenase assay); settings: Inhibition of biochemical activity of uKIT kinase; 1 mM ATP
Sequence of c-KIT kinase (uKIT) (P10721 other isoform, or with tags, fused parts or gaps): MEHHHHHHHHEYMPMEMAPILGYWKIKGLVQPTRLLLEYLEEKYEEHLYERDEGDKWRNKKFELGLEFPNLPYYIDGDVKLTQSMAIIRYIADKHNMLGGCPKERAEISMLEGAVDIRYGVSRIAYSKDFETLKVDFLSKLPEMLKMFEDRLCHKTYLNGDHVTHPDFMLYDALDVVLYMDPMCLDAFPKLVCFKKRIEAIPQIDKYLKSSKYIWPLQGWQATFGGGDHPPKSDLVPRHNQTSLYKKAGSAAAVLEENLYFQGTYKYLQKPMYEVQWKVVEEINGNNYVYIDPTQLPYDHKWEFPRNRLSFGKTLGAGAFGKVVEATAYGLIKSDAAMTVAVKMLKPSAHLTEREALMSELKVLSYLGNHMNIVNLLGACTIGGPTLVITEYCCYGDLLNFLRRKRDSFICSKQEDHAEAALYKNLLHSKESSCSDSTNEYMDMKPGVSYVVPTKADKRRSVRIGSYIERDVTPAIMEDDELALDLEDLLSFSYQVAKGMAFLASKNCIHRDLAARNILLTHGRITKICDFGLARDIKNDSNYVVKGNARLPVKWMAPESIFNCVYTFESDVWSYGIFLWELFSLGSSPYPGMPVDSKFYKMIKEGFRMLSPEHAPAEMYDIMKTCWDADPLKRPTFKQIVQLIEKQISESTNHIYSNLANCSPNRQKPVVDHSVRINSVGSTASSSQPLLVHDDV
How it was run: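 IC50 from percent inhibition of reaction rate over 2-3 h, relative to no-compound and known-inhibitor controls. KIT enzyme (16 nM or 4.36 nM, two sequences) ran with 1 mM ATP and 0.7 mg/mL PE4Y in Tris pH 7.5, 30° C; ATP turnover coupled to NADH loss at 340 nm.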

[3] = test system: GIST 430 cells; experiment: GIST 430 Cell Proliferation Assay (resazurin); format: cell-based; settings: Homo sapiens; GIST430 cell proliferation
How it was run: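 Five thousand cells per well were exposed to serially diluted compound in complete growth medium for 115 h at 37 degrees Celsius, 5% CO2. Resazurin was then added for a further 5 h, fluorescence read at 540 nm excitation/600 nm emission, and IC50 values calculated.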

[4] = Ba/F3 KIT AYdup mutant cell proliferation, read-out: AYdup IC50
[5] = Ba/F3 KIT AYdup-D816G mutant cell proliferation, read-out: AYdup-D816G IC50
[6] = Ba/F3 KIT AYdup-V654A mutant cell proliferation, read-out: AYdup-V654A IC50
[7] = Ba/F3 KIT exon11del-V654A mutant cell proliferation, read-out: exon11del-V654A IC50
[8] = Ba/F3 KIT exon11del-Y823D mutant cell proliferation, read-out: exon11del-Y823D IC50

| IC50 [1, 4] [nM] | IC50 [1, 5] [nM] | IC50 [1, 6] [nM] | IC50 [1, 7] [nM] | IC50 [1, 8] [nM] | IC50 [2] [nM] | Compound | IC50 [3] [nM] |
| --- | --- | --- | --- | --- | --- | --- | --- |
| ≤ 10 | 10 to 100 | 10 to 100 | ≤ 10 | 10 to 100 | ≤ 10 | COCCOc1cc(F)c2c(Nc3ccc(NC(=O)CC(=O)NC4CCCC4)cc3)ncnc2c1 [Example 92] | ≤ 10 |
| – | – | > 1000 | 100 to 1000 | – | 100 to 1000 | COCCOc1cc(F)c2c(Nc3ccc(NC(=O)CC(=O)NC4COC4)cc3)ncnc2c1 [Example 93] | > 1000 |
| – | – | 100 to 1000 | 100 to 1000 | – | 100 to 1000 | COCCOc1cc(F)c2c(Nc3ccc(NC(=O)CC(=O)NC4CC4)cc3)ncnc2c1 [Example 94] | 100 to 1000 |
| ≤ 10 | 10 to 100 | 10 to 100 | ≤ 10 | 10 to 100 | ≤ 10 | COCCOc1cc(F)c2c(Nc3ccc(NC(=O)CC(=O)NC4CCC4)cc3)ncnc2c1 [Example 95] | ≤ 10 |
| – | – | 10 to 100 | 10 to 100 | > 1000 | 10 to 100 | COCCOc1cc(F)c2c(Nc3ccc(NC(=O)CC(=O)NC(C)C)cc3)ncnc2c1 [Example 96] | 10 to 100 |
| ≤ 10 | 10 to 100 | 10 to 100 | ≤ 10 | 10 to 100 | ≤ 10 | COCCOc1cc(F)c2c(Nc3ccc(NC(=O)CC(=O)NC4CCCCC4)cc3)ncnc2c1 [Example 97] | ≤ 10 |
| – | – | 100 to 1000 | 10 to 100 | > 1000 | 10 to 100 | COCCOc1cc(F)c2c(Nc3ccc(NC(=O)CC(=O)NCC4(C#N)CC4)cc3)ncnc2c1 [Example 98] | 100 to 1000 |
| – | – | 10 to 100 | ≤ 10 | 10 to 100 | ≤ 10 | COCCOc1cc(F)c2c(Nc3ccc(NC(=O)NCCCC(C)(C)C#N)cc3)ncnc2c1 [Example 99] | ≤ 10 |
| – | – | 10 to 100 | 10 to 100 | 100 to 1000 | 10 to 100 | COCCOc1cc(F)c2c(Nc3ccc(NC(=O)CC(=O)NCCC(C)C)cc3)ncnc2c1 [Example 100] | 10 to 100 |
| – | – | 100 to 1000 | 10 to 100 | > 1000 | 100 to 1000 | COCCOc1cc(F)c2c(Nc3ccc(NC(=O)CC(=O)NC[C@H]4CCCO4)cc3)ncnc2c1 [Example 101] | 100 to 1000 |
| ≤ 10 | 10 to 100 | 10 to 100 | 10 to 100 | 10 to 100 | 10 to 100 | COCCOc1cc(F)c2c(Nc3ccc(NC(=O)CNC(=O)CC(C)(C)C)cc3)ncnc2c1 [Example 102] | ≤ 10 |
| – | – | 10 to 100 | 10 to 100 | 100 to 1000 | 10 to 100 | COCCOc1cc(F)c2c(Nc3ccc(NC(=O)CNC(=O)C(C)(C)C)cc3)ncnc2c1 [Example 103] | ≤ 10 |
| ≤ 10 | ≤ 10 | 10 to 100 | ≤ 10 | ≤ 10 | ≤ 10 | CC(C)(C#N)CCNC(=O)Nc1ccc(Nc2ncnc3cc(OCCN4CCOCC4)cc(F)c23)cc1 [Example 104] | ≤ 10 |
| – | – | 10 to 100 | ≤ 10 | 100 to 1000 | ≤ 10 | COCCOc1cc(F)c2c(Nc3ccc(NC(=O)NCCC(C)(C)C#N)c(F)c3)ncnc2c1 [Example 105] | ≤ 10 |
| – | – | 10 to 100 | ≤ 10 | 10 to 100 | ≤ 10 | COCCOc1cc(F)c2c(Nc3ccc(NC(=O)NCCCC(C)(C)F)cc3)ncnc2c1 [Example 106] | ≤ 10 |
| – | – | 100 to 1000 | 10 to 100 | > 1000 | 10 to 100 | COCCOc1cc(F)c2c(Nc3ccc(NC(=O)CC(=O)NCCC(C)(C)OC)cc3)ncnc2c1 [Example 107] | 100 to 1000 |
| – | – | 100 to 1000 | 10 to 100 | > 1000 | 10 to 100 | COCCOc1cc(F)c2c(Nc3ccc(NC(=O)CC(=O)NCC4(C)CCOCC4)cc3)ncnc2c1 [Example 109] | 10 to 100 |
| – | – | 100 to 1000 | 10 to 100 | > 1000 | 10 to 100 | COCCOc1cc(F)c2c(Nc3ccc(NC(=O)CC(=O)NCC4(C)CCCO4)cc3)ncnc2c1 (stereo not shown) [Example 110] | 10 to 100 |
| ≤ 10 | 10 to 100 | 10 to 100 | ≤ 10 | 10 to 100 | ≤ 10 | COCCOc1cc(F)c2c(Nc3ccc(NC(=O)CC(=O)NCC4(C)CCC4)cc3)ncnc2c1 [Example 111] | ≤ 10 |

| IC50 [1, 4] [nM] | IC50 [1, 5] [nM] | IC50 [1, 6] [nM] | IC50 [1, 7] [nM] | IC50 [1, 8] [nM] | IC50 [2] [nM] | Compound | IC50 [3] [nM] |
| --- | --- | --- | --- | --- | --- | --- | --- |
| ≤ 10 | 10 to 100 | 10 to 100 | ≤ 10 | 10 to 100 | 10 to 100 | COCCOc1cc(F)c2c(Nc3ccc(NC(=O)CC(=O)NC4CC(C)(C)C4)cc3)ncnc2c1 [Example 112] | ≤ 10 |
| – | – | 10 to 100 | 10 to 100 | 100 to 1000 | 10 to 100 | COCCOc1cc(F)c2c(Nc3ccc(NC(=O)CC(=O)NC4CC(F)(F)C4)cc3)ncnc2c1 [Example 113] | 10 to 100 |
| – | – | 100 to 1000 | 100 to 1000 | > 1000 | 100 to 1000 | COCCOc1cc(F)c2c(Nc3ccc(NC(=O)CC(=O)NC4CC5(COC5)C4)cc3)ncnc2c1 [Example 114] | 100 to 1000 |
| – | – | 10 to 100 | 10 to 100 | 100 to 1000 | 10 to 100 | COCCOc1cc(F)c2c(Nc3ccc(NC(=O)CC(=O)NCC4CC(F)(F)C4)cc3)ncnc2c1 [Example 115] | 10 to 100 |
| – | – | 100 to 1000 | 10 to 100 | – | 100 to 1000 | COCCOc1cc(F)c2c(Nc3ccc(NC(=O)CC(=O)N[C@H]4C[C@@H](OC)C4)cc3)ncnc2c1 [Example 116] | 100 to 1000 |
| – | – | 10 to 100 | 10 to 100 | > 1000 | 100 to 1000 | COCCOc1cc(F)c2c(Nc3ccc(NC(=O)CC(=O)N[C@H]4C[C@H](OC)C4)cc3)ncnc2c1 [Example 117] | 10 to 100 |
| – | – | 10 to 100 | ≤ 10 | 10 to 100 | ≤ 10 | COCCOc1cc(F)c2c(Nc3ccc(NC(=O)CC(=O)NCC4CC5(CCC5)C4)cc3)ncnc2c1 [Example 118] | 10 to 100 |
| – | – | 10 to 100 | 10 to 100 | 100 to 1000 | 10 to 100 | COCCOc1cc(F)c2c(Nc3ccc(NC(=O)CC(=O)NCCC(C)(C)F)cc3)ncnc2c1 [Example 119] | 10 to 100 |
| – | – | 10 to 100 | ≤ 10 | 100 to 1000 | ≤ 10 | COCCCOc1cc(F)c2c(Nc3ccc(NC(=O)NCCC(C)(C)F)cc3)ncnc2c1 [Example 120] | 10 to 100 |
| – | – | 100 to 1000 | 10 to 100 | > 1000 | 100 to 1000 | COCCOc1cc(F)c2c(Nc3ccc(NC(=O)CC(=O)NC[C@@H]4CCCO4)cc3)ncnc2c1 [Example 121] | 100 to 1000 |
| – | – | 100 to 1000 | 10 to 100 | > 1000 | 10 to 100 | COCCOc1cc(F)c2c(Nc3ccc(NC(=O)N4CCC(C(C)(C)C)C4)cc3)ncnc2c1 (stereo not shown) [Example 122] | 100 to 1000 |
| – | – | 10 to 100 | ≤ 10 | 10 to 100 | ≤ 10 | CC(C)(F)CCNC(=O)Nc1ccc(Nc2ncnc3cc(OCC4CCOCC4)cc(F)c23)cc1 [Example 123] | 10 to 100 |
| – | – | 10 to 100 | 10 to 100 | 100 to 1000 | 10 to 100 | COCCOc1cc(F)c2c(Nc3ccc(NC(=O)CC(=O)NC(C)(C)C)cc3)ncnc2c1 [Example 124] | 10 to 100 |
| – | – | 10 to 100 | 10 to 100 | – | 10 to 100 | COCCOc1cc(F)c2c(Nc3ccc(NC(=O)C(=O)NCCC(C)(C)C)cc3)ncnc2c1 [Example 125] | 10 to 100 |
| – | – | 100 to 1000 | 100 to 1000 | > 1000 | 100 to 1000 | COCCOc1cc(F)c2c(Nc3ccc(NC(=O)C(=O)NCC(C)(C)C)cc3)ncnc2c1 [Example 126] | 100 to 1000 |
| – | – | 10 to 100 | 10 to 100 | > 1000 | 10 to 100 | COCCOc1cc(F)c2c(Nc3ccc(NC(=O)CC(=O)NCC(F)(F)F)cc3)ncnc2c1 [Example 127] | 10 to 100 |
| – | – | 10 to 100 | ≤ 10 | 100 to 1000 | 10 to 100 | COCCOc1cc(F)c2c(Nc3ccc(NC(=O)CC(=O)NC4(C(C)C)CC4)cc3)ncnc2c1 [Example 128] | 10 to 100 |
| – | – | 10 to 100 | ≤ 10 | > 1000 | 10 to 100 | COCCOc1cc(F)c2c(Nc3ccc(NC(=O)CC(=O)NC4(C(F)(F)F)CC4)cc3)ncnc2c1 [Example 129] | 10 to 100 |
| ≤ 10 | 10 to 100 | 10 to 100 | ≤ 10 | 10 to 100 | 10 to 100 | COCCOc1cc(F)c2c(Nc3ccc(NC(=O)CC(=O)NC(C)(C)C(F)(F)F)cc3)ncnc2c1 [Example 130] | 10 to 100 |
